The text below walks through data of patent publication US20260071117A1, “FUNABLE FLUORESCENT COMPOUNDS AND USES THEREOF” (Arizona Board of Regents on Behalf of the University of …, priority 2021, published 2026).

Data set [1] is described as follows: Absorbance and fluorescence measurements (excitation maximum, emission maximum, quantum yield vs coumarin 151). In kind it is physicochemical. On the set-up: key to Quantum Yield: fraction relative to coumarin 151 in ethanol standard. Conditions: measurements run with methanol; for λex: absorbance/excitation maximum; for Quantum Yield: coumarin 151 in ethanol as standard; for Quantum Yield / λem: 2.5 mm slit width; for λem: emission maximum.

For data set [2] the following is noted: previously published amine, comparison in Example I; cited from earlier work.

Where two headings read alike, the source gives them in different places.

Regarding `COc1cccc(-c2nc3c(nc4ccccn43)c3cc(OC)ccc23)c1` [Compound 16a, 2-methoxy-5-(3-methoxyphenyl)pyrido[2′,1′:2,3]imidazo[4,5-c]isoquinoline], in data set [1], the λex is listed as 361 nm, the “Quantum Yield” value amounted to 0.05 and the λem was 417 nm. In data set [2], the Quantum Yield is given as 0.02, the emission maxima is reported as 505 nm and the excitation maxima is given as 292 nm.

`COc1cc(/C=C/c2nc3nc(-c4cc(OC)cc(OC)c4)c(/N=C/c4cc(OC)cc(OC)c4)n3nc2C)cc(OC)c1` [Compound 62, (E)-1-(3,5-dimethoxyphenyl)-N-(6-(3,5-dimethoxyphenyl)-3-((E)-3,5-dimethoxystyryl)-2-methylimidazo[1,2-b][1,2,4]triazin-7-yl)methanimine]: in data set [1], the λex is listed as 506 nm, the “Quantum Yield” value amounted to 0.10 and the λem is given as 589 nm.

Regarding `Cc1nn2c(/N=C/c3cccs3)c(-c3cccs3)nc2nc1/C=C/c1cccs1` [Compound 63, (E)-N-(2-methyl-6-(thiophen-2-yl)-3-((E)-2-(thiophen-2-yl)vinyl)imidazo[1,2-b][1,2,4]triazin-7-yl)-1-(thiophen-2-yl)methanimine], in data set [1], the λex came to 572 nm, the “Quantum Yield” value was 0.19 and the λem is reported as 615 nm.

In the case of `COc1cc(/C=C/c2nc3nc(-c4cc(OC)c(OC)c(OC)c4)c(/N=C/c4cc(OC)c(OC)c(OC)c4)n3nc2C)cc(OC)c1OC` [Compound 64, (E)-N-(2-methyl-6-(3,4,5-trimethoxyphenyl)-3-((E)-3,4,5-trimethoxystyryl)imidazo[1,2-b][1,2,4]triazin-7-yl)-1-(3,4,5-trimethoxyphenyl)methanimine], in data set [1], the λex is reported as 533 nm, the “Quantum Yield” value is recorded as 0.10 and the λem was 611 nm.

Turning to `Cc1nn2c(NCc3ccccc3)c(-c3ccccc3)nc2nc1/C=C/c1ccccc1` [Compound 74, (E)-N-benzyl-2-methyl-6-phenyl-3-styrylimidazo[1,2-b][1,2,4]triazin-7-amine], in data set [1], the λex is 498 nm, the “Quantum Yield” value is 0.24 and the λem amounted to 636 nm.

For the molecule `Cc1nn2c(NCc3ccccc3)c(-c3ccc4ccccc4c3)nc2nc1/C=C/c1ccc2ccccc2c1` [Compound 75, (E)-N-benzyl-2-methyl-6-(naphthalen-2-yl)-3-(2-(naphthalen-2-yl)vinyl)imidazo[1,2-b][1,2,4]triazin-7-amine], in data set [1], the λex is given as 529 nm, the “Quantum Yield” value stood at 0.34 and the λem is 646 nm.

`COc1ccc(/C=C/c2nc3nc(-c4ccc(OC)cc4)c(NCc4ccccc4)n3nc2C)cc1` [Compound 76, (E)-N-benzyl-6-(4-methoxyphenyl)-3-(4-methoxystyryl)-2-methylimidazo[1,2-b][1,2,4]triazin-7-amine]: in data set [1], the λex was determined as 499 nm, the “Quantum Yield” value is given as 0.24 and the λem is on record as 639 nm.

For the molecule `Cc1cc(C)cc(-c2nc3ccccn3c2N)c1` [Compound 101, 2-(3,5-dimethylphenyl)imidazo[1,2-a]pyridin-3-amine], in data set [1], the λex amounted to 343 nm, the “Quantum Yield” value was found to be 0.28 and the λem was 474 nm.

In the case of `COc1cc(OC)cc(-c2nc3cccnn3c2N)c1` [Compound lot, 2-(3,5-dimethoxyphenyl)imidazo[1,2-b]pyridazin-3-amine], in data set [1], the λex turned out to be 407 nm, the “Quantum Yield” value is 0.02 and the λem is listed as 546 nm.

In the case of “(E)-2,3,4-trimethoxy-9-methyl-5-(3,4,5-trimethoxyphenyl)-10-(3,4,5-trimethoxystyryl)-[1,2,4]triazino[3′, 2′: 2,3]imidazo[4,5-c]isoquinolines [Compound 80]”, in data set [1], the λex is listed as 499 nm, the “Quantum Yield” value was 0.25 and the λem was 604 nm.

Turning to “(E)-5-(3,5-dimethoxyphenyl)-10-(3,5-dimethoxystyryl)-2,4-dimethoxy-9-methyl-[1,2,4]triazino[3′, 2′: 2,3]imidazo[4,5-c]isoquinolines [Compound 79]”, in data set [1], the λex amounted to 498 nm, the “Quantum Yield” value is on record as 0.18 and the λem was found to be 608 nm.
